Patent publication US20120196824A1, “THERAPEUTIC AGENT FOR CEREBRAL INFARCTION” (MITSUBISHI TANABE PHARMA CORPORATION, priority 2009, published 2012)

Molecular target: T1, Human-recombinant-S-Adenosyl-L-Homocysteine Hydrolase (Homo sapiens, UniProt P23526)
T1 construct: purchased Diazyme Laboratories
Assay: Measurement of enzyme inhibitory activity (hydrolysis of S-Adenosyl-L-Homocysteine, HPLC)
Assay type: biochemical
Conditions: S-Adenosyl-L-Homocysteine 10 μM, pH 7.2, 37° C., 15 min
Method: The enzyme inhibitory activity of the compounds of the Examples was measured using the hydrolysis activity of S-Adenosyl-L-Homocysteine as an index. The measurement method was modification of the method of Henry H. Richards et al. (J. Biol. Chem. 253, 4476-4480, 1978). That is, S-Adenosyl-L-Homocysteine (10 μM) and Adenosine Deaminase (Roche) (4 units) were added to 50 mM phosphate buffer (pH 7.2, containing 1 mM EDTA) with the total amount being 200 μl, and to the solution were added a test substance and then Human-recombinant-S-Adenosyl-L-Homocysteine Hydrolase (50 ng, Diazyme Laboratories) to start the reaction, and the mixture was incubated at 37° C. for 15 min. The reaction was quenched by the addition of 1N aqueous perchloric solution (20 μl), and the mixture was centrifuged under the conditions of 10000 rpm, 5 min, 4° C. The supernatant was collected, and the amount of S-Adenosyl-L-Homocysteine after the reaction was quantified by HPLC. The column used was a reversed-phase column. The detailed conditions of HPLC were as follows.
column used: Wakopak^R HandyODS 150*4.6 mm (Wako Pure Chemical Industries, Ltd.) elution condition: 1.0 ml/min elution solvent: 0.1M acetate buffer (pH 4.0) containing 10 mM 1-heptanesulfonic acid containing 4% acetonitrile wavelength: 258 nm (UV) The inhibitory rate was determined with the amount of decrease in S-Adenosyl-L-Homocysteine before and after the reaction without using the test substance as 100%.
Inhibitory rate (%)={(amount of decrease of S-Adenosyl-L-Homocysteine in the presence of test substance)/(amount of decrease of S-Adenosyl-L-Homocysteine in the absence of test substance)}×100

T1 sequence (P23526 whole entry): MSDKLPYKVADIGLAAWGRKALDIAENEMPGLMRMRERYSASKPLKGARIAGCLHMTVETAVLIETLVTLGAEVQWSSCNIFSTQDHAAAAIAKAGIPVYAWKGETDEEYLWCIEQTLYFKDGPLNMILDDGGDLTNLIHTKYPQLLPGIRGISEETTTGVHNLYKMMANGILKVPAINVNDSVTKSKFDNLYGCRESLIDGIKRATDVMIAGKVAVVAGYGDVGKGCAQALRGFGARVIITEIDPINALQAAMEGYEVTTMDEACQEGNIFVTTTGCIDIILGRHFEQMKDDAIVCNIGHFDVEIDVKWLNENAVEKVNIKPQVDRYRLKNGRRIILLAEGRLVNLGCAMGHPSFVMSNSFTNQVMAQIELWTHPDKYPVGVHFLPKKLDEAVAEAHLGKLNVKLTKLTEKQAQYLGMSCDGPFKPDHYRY

Compound | IC50
Cc1nc(-c2ccc(C)c(N(CC(=O)NCCNC(C)C)CC(=O)N(C)N3Cc4ccccc4C3)c2)no1 [Example 15, N^2-{2-[1,3-dihydro-2H-isoindol-2-yl(methyl)amino]-2-oxoethyl}-N^2-[2-methyl-5-(5-methyl-1,2,4-oxadiazol-3-yl)phenyl]-N^1-[2-(isopropylamino)ethyl]glycinamide] | 0.017 µM
CCNCCNC(=O)CN(CC(=O)N(C)N1Cc2ccccc2C1)c1cc(-c2noc(C)n2)ccc1C [Example 16, N^2-{2-[1,3-dihydro-2H-isoindol-2-yl(methyl)amino]-2-oxoethyl}-N^2-[2-methyl-5-(5-methyl-1,2,4-oxadiazol-3-yl)phenyl]-N^1-[2-(ethylamino)ethyl]glycinamide] | 0.019 µM
CCNCCNC(=O)CN(CC(=O)N(C)N1Cc2ccc(F)cc2C1)c1cc(-c2nc(C)no2)ccc1C [Example 87, N^2-{2-[(5-fluoro-1,3-dihydro-2H-isoindol-2-yl)(methyl)amino]-2-oxoethyl}-N^2-[2-methyl-5-(3-methyl-1,2,4-oxadiazol-5-yl)phenyl]-N^1-[2-(ethylamino)ethyl]glycinamide] | 0.018 µM
Cc1cc2onc(C)c2cc1N(CC(=O)NCCNC(C)C)CC(=O)N(C)N1Cc2ccccc2C1 [Example 180, N^2-{2-[1,3-dihydro-2H-isoindol-2-yl(methyl)amino]-2-oxoethyl}-N^2-(3,6-dimethyl-1,2-benzisoxazol-5-yl)-N^1-[2-(isopropylamino)ethyl]glycinamide] | 0.015 µM
CCNCCNC(=O)CN(CC(=O)N(C)N1Cc2ccccc2C1)c1cc2c(C)noc2cc1C [Example 181, N^2-{2-[1,3-dihydro-2H-isoindol-2-yl(methyl)amino]-2-oxoethyl}-N^2-(3,6-dimethyl-1,2-benzisoxazol-5-yl)-N^1-[2-(ethylamino)ethyl]glycinamide] | 0.016 µM
Cc1cc2oc(=O)n(C)c2cc1N(CC(=O)NCCNC(C)C)CC(=O)N(C)N1Cc2ccccc2C1 [Example 190, N^2-{2-[1,3-dihydro-2H-isoindol-2-yl(methyl)amino]-2-oxoethyl}-N^2-(3,6-dimethyl-1,3-benzoxazol-2(3H)-on-5-yl)-N^1-[2-(isopropylamino)ethyl]glycinamide] | 0.088 µM
CCNCCNC(=O)CN(CC(=O)N(C)N1Cc2ccccc2C1)c1cc2c(cc1C)oc(=O)n2C [Example 191, N^2-{2-[1,3-dihydro-2H-isoindol-2-yl(methyl)amino]-2-oxoethyl}-N^2-(3,6-dimethyl-1,3-benzoxazol-2(3H)-on-5-yl)-N^1-[2-(ethylamino)ethyl]glycinamide] | 0.051 µM
Cc1cc2c(cc1N(CC(=O)NCCNC(C)C)CC(=O)N(C)N1Cc3ccccc3C1)oc(=O)n2C [Example 192, N^2-{2-[1,3-dihydro-2H-isoindol-2-yl(methyl)amino]-2-oxoethyl}-N^2-(3,5-dimethyl-1,3-benzoxazol-2(3H)-on-6-yl)-N^1-[2-(isopropylamino)ethyl]glycinamide] | 0.046 µM
CCNCCNC(=O)CN(CC(=O)N(C)N1Cc2ccccc2C1)c1cc2oc(=O)n(C)c2cc1C [Example 193, N^2-{2-[1,3-dihydro-2H-isoindol-2-yl(methyl)amino]-2-oxoethyl}-N^2-(3,5-dimethyl-1,3-benzoxazol-2(3H)-on-6-yl)-N^1-[2-(ethylamino)ethyl]glycinamide] | 0.029 µM
CCNCCNC(=O)CN(CC(=O)N(C)N1Cc2cccc(F)c2C1)c1ccc(-c2noc(C)n2)cc1C [Example 205, N^2-{2-[(4-fluoro-1,3-dihydro-2H-isoindol-2-yl)(methyl)amino]-2-oxoethyl}-N^2-[2-methyl-4-(5-methyl-1,2,4-oxadiazol-3-yl)phenyl]-N^1-[2-(ethylamino)ethyl]glycinamide] | 0.048 µM
CCNCCNC(=O)CN(CC(=O)N(C)N1Cc2ccccc2C1)c1ccc(C(C)=O)cc1C [Example 210, N^2-(4-acetyl-2-methylphenyl)-N^2-{2-[1,3-dihydro-2H-isoindol-2-yl(methyl)amino]-2-oxoethyl}-N^1-[2-(ethylamino)ethyl]glycinamide] | 0.034 µM

More lines, now with the values ahead:

IC50 | Compound
0.033 µM | CCNCCNC(=O)CN(CC(=O)N(C)N1Cc2cccc(F)c2C1)c1cc(-c2noc(C)n2)ccc1C [Example 19, N^2-{2-[(4-fluoro-1,3-dihydro-2H-isoindol-2-yl)(methyl)amino]-2-oxoethyl}-N^2-[2-methyl-5-(5-methyl-1,2,4-oxadiazol-3-yl)phenyl]-N^1-[2-(ethylamino)ethyl]glycinamide]
0.056 µM | CCNCCNC(=O)CN(CC(=O)N(C)C1Cc2ccccc2C1)c1cc(-c2noc(C)n2)ccc1C [Example 26, N^2-{2-[2,3-dihydro-1H-inden-2-yl(methyl)amino]-2-oxoethyl}-N^2-[2-methyl-5-(5-methyl-1,2,4-oxadiazol-3-yl)phenyl]-N^1-[2-(ethylamino)ethyl]glycinamide]
0.052 µM | CC(=O)c1ccc(C)c(N(CC(=O)NCCNC(C)C)CC(=O)N(C)N2Cc3ccccc3C2)c1 [Example 56, N^2-(5-acetyl-2-methylphenyl)-N^2-{2-[1,3-dihydro-2H-isoindol-2-yl(methyl)amino]-2-oxoethyl}-N^1-[2-(isopropylamino)ethyl]glycinamide]
0.042 µM | CCNCCNC(=O)CN(CC(=O)N(C)N1Cc2ccccc2C1)c1cc(C(C)=O)ccc1C [Example 57, N^2-(5-acetyl-2-methylphenyl)-N^2-{2-[1,3-dihydro-2H-isoindol-2-yl(methyl)amino]-2-oxoethyl}-N^1-[2-(ethylamino)ethyl]glycinamide]
0.034 µM | Cc1noc(-c2ccc(C)c(N(CC(=O)NCCNC(C)C)CC(=O)N(C)N3Cc4ccccc4C3)c2)n1 [Example 84, N^2-{2-[1,3-dihydro-2H-isoindol-2-yl(methyl)amino]-2-oxoethyl}-N^2-[2-methyl-5-(3-methyl-1,2,4-oxadiazol-5-yl)phenyl]-N^1-[2-(isopropylamino)ethyl]glycinamide]
0.017 µM | CCNCCNC(=O)CN(CC(=O)N(C)N1Cc2ccccc2C1)c1cc(-c2nc(C)no2)ccc1C [Example 85, N^2-{2-[1,3-dihydro-2H-isoindol-2-yl(methyl)amino]-2-oxoethyl}-N^2-[2-methyl-5-(3-methyl-1,2,4-oxadiazol-5-yl)phenyl]-N^1-[2-(ethylamino)ethyl]glycinamide]
0.01 µM | CCNCCNC(=O)CN(CC(=O)N(C)N1Cc2ccccc2C1)c1cc(-c2ncccn2)ccc1C [Example 129, N^2-{2-[1,3-dihydro-2H-isoindol-2-yl(methyl)amino]-2-oxoethyl}-N^2-(2-methyl-5-pyrimidin-2-ylphenyl)-N^1-[2-(ethylamino)ethyl]glycinamide]
0.046 µM | CCNCCNC(=O)CN(CC(=O)N(C)N1Cc2ccccc2C1)c1cc2c(cc1C)N(CC)C(=O)CC2 [Example 177, N^2-{2-[1,3-dihydro-2H-isoindol-2-yl(methyl)amino]-2-oxoethyl}-N^2-(1-ethyl-7-methyl-2-oxo-1,2,3,4-tetrahydroquinolin-6-yl)-N^1-[2-(ethylamino)ethyl]glycinamide]
0.065 µM | CCNCCNC(=O)CN(CC(=O)N(C)N1Cc2ccc(F)cc2C1)c1ccc(-c2noc(C)n2)cc1C [Example 204, N^2-{2-[(5-fluoro-1,3-dihydro-2H-isoindol-2-yl)(methyl)amino]-2-oxoethyl}-N^2-[2-methyl-4-(5-methyl-1,2,4-oxadiazol-3-yl)phenyl]-N^1-[2-(ethylamino)ethyl]glycinamide]
